Data published in patent US20080124813A1, “Bead-based radioimmunoassay” (Phoenix Pharmaceuticals, Inc., priority 2006, published 2008).
No end group written: not given here.

Assays:
anti-ghrelin antibody [1] = assay: Time course of I^125-ghrelin binding to anti-ghrelin antibody-conjugated bead; details: room temp (21° C.), 0-249 min, FIG. 3
Procedure: A particular embodiment of the immunoassay method for dissociable capture of radiolabeled ghrelin peptide by solid phase linked antibody can be performed as follows:
1. Combine 100 ul of I^125-ghrelin (specific activity 3.15 p mole/ml) prepared in accordance with Example 1.3 (Example 1 step 3) to each of eight aliquots of 50 μL antibody-conjugated beads and to each of two aliquots of 50 μL glycine-conjugated beads prepared in accordance with Example 2B suspended in stock solution (0.01 M Tris (pH 7.4), 0.1% NaN3, 0.1% w/v bovine serum albumin (BSA), 0.15M NaCl, and 0.001M EDTA.
2. Incubate antibody-conjugated beads at room temp (21° C.) for 0, 5, 10, 15, 30, 60, 120, and 249 min.
3. To each incubated mixture of antibody-conjugated beads and I^125-ghrelin add 1.5 ml RIA buffer (150 mM NaCl, 100 mM sodium phosphate, 1% BSA and 1% Triton X-100), mix, and centrifuge for 5 minutes at 17,000× g. Aspirate off the supernatant. 4. Wash once with 1 ml RIA buffer. Aspirate off the supernatant
5. Measure and record counts per minute for each assay tube.
The results shown are the means of duplicates. The counts from gamma counter represent the specific binding by anti-ghrelin antibody. The binding curve was generated using a non-linear least square fitting program in GraphPad Prism (version 2.01).

insulysin (IDE) = insulysin (IDE) (Homo sapiens, UniProt P14735); assay: Peptide degradation by insulysin (IDE), read out by bead-based RIA; assay type: biochemical; details: for degradation kinetics with insulysin (IDE): 37° C., 0-15 min, means of duplicates, FIGS. 10 and 11
Description: Now referring primarily to FIGS. 10, 11 and 12 and Example 12, an embodiment of the inventive immunoassay system (1) allows for the coincident measurement of the degradation of a plurality of target particles (7) contained in the same immunoassay sample (6). […] Similarly, now referring to FIG. 11, the inventive immunoassay method can be used to determine the decreased concentration of amylin in an immunoassay sample (6) upon degradation by IDE.
1. Prepare separately solutions of 200 pg/mL of human glucagon (adjust with I^125-glucagon) and 40 pg/mL of human amylin (adjust with I^125-amylin) each in a total volume of 2 mL.
2. Prepare a digestion solution of insulysin (IDE) 6.2 μg in 3.1 mL of 0.15M NaCl, 25 mM Tris, pH7.5. Aliquote 0.4 mL to a tube for total of 12 tubes of digestion solution.
3. Add to the digestion solution with above 0.4 mL of human glucagon or amylin solution.
4. Incubate at 37° C. for a time interval at 15, 10, 7, 5, 3, 1 min and a tube without the incubation.
5. At the indicated time, add 40 μL protease inhibitor (bacitracin 2 mg/ml final concentration) and 300 μL of 10 mM ammonium chloride to stop the reaction.
6. Transfer 50 μL antibody conjugated bead prepared in accordance with Example 2B, 120 μL RIA buffer, 50 μl aprotinin and 80 μL of digested I^125-labeled peptide solution to 1 mL conical tube and incubate with agitation for 30 min.
7. Spin 5 min at 16000×g to pellet the beads and discard supernatant.
8. Add 1 mL of RIA buffer and centrifuge at 1700×g for 5 min.
9. Remove the supernatant and count the CPM of the pellet by gamma counter.

anti-ghrelin antibody [2] = assay: 60 μl small volume competitive radiolabeled ghrelin binding by bead-linked antibody (bead-based RIA); details: competition with I^125-ghrelin, total volume about 60 μl; stated as comparable to conventional RIA of Example 1
Procedure: A particular embodiment of the immunoassay method for competitive dissociable capture of radiolabeled ghrelin peptide by solid phase linked antibody to determine ghrelin peptide concentration in a 60 μl small volume immunoassay sample can be performed as follows:
1. Combine 25 μl of antibody immobilized beads in stock solution prepared in accordance with Example 2B to about 25 μl human plasma or 10 μl-25 μl standard solution.
2. Mix resulting combination and incubate 6 hours at room temperature.
3. Add 10 μl 125I-peptide. Mix and incubate overnight (16-18 hrs.) at 4° C. 4. Add RIA buffer. Mix and centrifuge for 5 minutes at 1,700 g. Aspirate off the supernatant (except total count tubes). 5. Wash once with 1 ml RIA buffer. Aspirate off the supernatant (except total count tubes).
6. Measure and record counts per minute for each assay tube.
The plasma concentration was interpolated from standard curves and indicate about 18.7 pg in 150 μl solution. The amounts of isotope labeled-ligands applied (as indicated in total counts tubes) was twice that of the conventional RIA as described in Example 1. […]

anti-ghrelin antibody [3] = assay: 150 μl small volume competitive radiolabeled ghrelin binding by bead-linked antibody (bead-based RIA); details: competition with I^125-ghrelin, total volume about 150 μl; stated as comparable to conventional RIA of Example 1
Procedure: A particular embodiment of the immunoassay method for competitive dissociable capture of radiolabeled ghrelin peptide by solid phase linked antibody to determine ghrelin peptide concentration in a 150 μl small volume immunoassay sample can be performed as follows:
1. Combine 25 μl of antibody conjugated beads in stock solution prepared in accordance with Example 2B to 50 μl human plasma or 50 μl standard solution.
2. Mix the resulting combination and incubate 6 hrs at 4° C.
3. Add 25 μl of I^125-ghrelin prepared in accordance with Example 1.3 and 50 μl RIA buffer.
4. Incubate 16-18 hrs. at 4° C.
5. Add 1.5 ml RIA buffer to incubated mixture and centrifuge for 5 minutes at 17,000× g. Aspirate off the supernatant (except total counts tubes). 6. Wash once with 1 ml RIA buffer. Aspirate off the supernatant (except total counts tubes).
7. Measure and record counts per minute for each assay tube.
The plasma concentration was interpolated from standard curves and indicate about 18.7 pg in 150 ul solution. The amounts of isotope labeled-ligands applied (as indicated in total counts tubes) was twice that of the conventional RIA described in Example 1. […] The total assay time was about 24 hours for this embodiment of the inventive immunoassay method. […]

I^125-ghrelin: I^125-labeled ghrelin peptide used as labeled particle (GSSFLSPEHQRVQQRKESKKPPAKLQPR; ends and bridges not checked; also: 125I label, position not given here; UniProt Q9UBU3 24-51, looked up)
time to saturation binding to antibody-conjugated beads (anti-ghrelin antibody [1]): two hour saturation binding

amylin (KCNTATCATQRLANFLVHSSNNFGAILSSTNVGSNTY; not fully specified (C-terminus, bridges); cysteine pairing not given here; also: 125I label, position not given here; UniProt P10997 34-70, looked up) [human amylin, human amylin, adjusted with I^125-amylin, digested with insulysin]
degradation kinetics with insulysin (IDE) (insulysin (IDE)): pseudo-first order degradation

ghrelin (GSSFLSPEHQRVQQRKESKKPPAKLQPR; ends and bridges not checked; UniProt Q9UBU3 24-51, looked up) [human peptide ghrelin, 28 residues in the naturally occurring form; target particle of the immunoassay]
IC50 (anti-ghrelin antibody [2]): around 400 pg/ml
IC50 (anti-ghrelin antibody [3]): about 400 pg/ml

glucagon
degradation kinetics with insulysin (IDE) (insulysin (IDE)): pseudo-first order degradation
concentration in immunoassay sample upon degradation with insulysin (insulysin (IDE); increasing duration of incubation with IDE at 37° C., FIG. 10): decreases
